Measured values from patent publication US20080241081A1, “AMIDE COMPOUND OR SALT THEREOF, AND BIOFILM REMOVER CONTAINING THE SAME” (priority 2006, published 2008).

Key:
autoinducer = conditions: as taught by Patent Document 1 (JP 2006-512290); cited from earlier work
[1] = system: biofilm formed by Pseudomonas aeruginosa (gfp expression PAO1-strain); assay: Evaluation test for removing biofilms formed by Pseudomonas aeruginosa (flow cell system, fluorescence confocal microscope); assay type: cell-based; conditions: test liquid 100 μM compound; for biofilm removal effect (conclusion): flow cell system, up to 10 days; for state of deposited biofilm observed over time: flow 200 μL per minute, observed after 3, 4, 5, 6, 7 and 10 days, compared with DMSO control test liquid
Description: Each of the amide compounds (Compound 1a-1, 1a-2, 1b-1 and 1c-1) produced in Production Examples 1 to 4 was evaluated for its biofilm removal effect, using the flow cell system shown in FIG. 1.
A culture medium bottle (1), a peristaltic pump (2), a glass cell (4) and a waste fluid bottle (5) are connected via a silicon tube (6) so that a culture medium (9) is supplied to the glass cell from the culture medium bottle (1) using the peristaltic pump (2). The system includes an air removal section (3) between the peristaltic pump (2) and a turncock (7a), for removing the entrained air. All tools in the flow cell system are sterilized using gamma-rays or an autoclave.
As specifically described later, the effect for removing biofilms is examined in the following manner. Bacteria are cultured in a glass cell (4) to grow a biofilm on the inner wall of the cell, and a test liquid containing one of the amide compounds is applied to the biofilm. Then the condition of the biofilm is observed to evaluate the biofilm-removing effect of the compound using a fluorescence confocal microscope (Leica TCS SP2: product of Leica).
The bacteria was prepared by inserting a pTdk-LVAgfp plasmid into a Pseudomonas aeruginosa PAO1-strain using the electroportion method so that the Pseudomonas aeruginosa PAO1-strain is transformed to express Green Fluorescent Protein (hereinafter referred to as “gfp expression PAO1-strain”) (see Teresa R. et al., Applied and Environmental Microbiology, April 2001, p. 1865-1873).
A 30 mM glucose-containing FAB culture medium was used for preincubation, and a 0.3 mM glucose-containing FAB culture medium was used for main cultivation.
The glucose-containing FAB culture medium was prepared by adding 200 μg/mL of carbenicillin to an aqueous solution containing 30 mM glucose or 0.3 mM glucose, 15 mM ammonium sulfate, 33.7 mM disodium hydrogenphosphate, 22.1 mM dipotassium hydrogenphosphate, 51.7 mM sodium chloride, 0.47 mM magnesium chloride, 0.08 mM calcium chloride and the following 0.1% trace metal solution.
An aqueous solution containing 1.16 mM calcium sulfate dihydrate, 0.72 mM iron sulfate heptahydrate, 0.08 mM manganous sulfate monohydrate, 0.08 mM copper sulfate pentahydrate, 0.07 mM zinc sulfate heptahydrate, 0.04 mM cobalt sulfate heptahydrate, 0.04 mM […], and 0.08 mM boric acid.
A gfp expression PAO1-strain was inoculated in a 30 mM glucose-containing FAB culture medium, and was subjected to shake culture at 37° C. in an isothermal tank overnight. The obtained overnight culture liquid was diluted by a 30 mM glucose-containing FAB culture medium to OD590=0.1. […]

[2] = system: biofilm formed by Porphyromonas gingivalis 381-strain; assay: Evaluation test for removing biofilms formed by periodontitis pathogenic bacteria (flow cell system, optical microscope); assay type: cell-based; conditions: same experiment as Experiment Example 1, Porphyromonas gingivalis 381-strain, 10 days
Description: The same experiment as in Experiment Example 1 was conducted except that periodontitis pathogenic bacteria Porphyromonas gingivalis 381-strain (clinical bacteria) was used in place of Pseudomonas aeruginosa PAO1-strain. […] The gradual exfoliation of the deposited biofilm from the cell wall, and the flowing flakes of biofilm exfoliation in the cell were also visually observed.

Row | SMILES | autoinducer agonist activity (autoinducer) | biofilm removal effect (conclusion) [1] | state of biofilm (removal) [2] | state of deposited biofilm observed over time [1]
1 | CCCCCCCCCC(=O)CC(=O)NN1CCCCC1 [drawing 7] | exhibits autoinducer agonist activity | – | – | –
2 | CCCCCCCCCC(=O)CC(=O)NN1CCCC1 [Compound 1a-1, N-(pyrrolidin-1-yl)-3-oxododecanoyl amide] | – | effective for removing deposited biofilms | nearly the entire biofilm was removed in 10 days | –
3 | CCCCCCCCCC(=O)CC(=O)Nc1ccccc1O [Comparative Compound 1, reference compound] | – | – | – | a similar biofilm formation to that of the control test using the control test liquid was observed
4 | CCCCCCCCCC(=O)CC(=O)NN1CCCCC1 [Compound 1a-2, N-(piperidine-1-yl)-3-oxododecanoyl amide] | – | effective for removing deposited biofilms | nearly the entire biofilm was removed in 10 days | gradual disappearance of the deposited biofilm with time was observed
